Experimental data from US10968177B2, “Tricyclic sulfones as RORγ modulators” (BRISTOL-MYERS SQUIBB COMPANY, priority 2016, dated 2021).
pIC50: −log10 of the molar value.

These compounds were tested against T1, RORγ (Homo sapiens, UniProt P51449) (assay: RORγ Gal4 reporter assay (Gal4-luciferase reporter in Jurkat cells)). Settings: inhibition of luminescence (inverse agonist activity); Jurkat cells stably over-expressing hRORγ; incubated overnight.
T1 construct: Jurkat pEx/Gal/hRORγ CLBD/HYG pG5luc/blast; expressed in transfected cells
T1 sequence (P51449 269-508 limits assumed): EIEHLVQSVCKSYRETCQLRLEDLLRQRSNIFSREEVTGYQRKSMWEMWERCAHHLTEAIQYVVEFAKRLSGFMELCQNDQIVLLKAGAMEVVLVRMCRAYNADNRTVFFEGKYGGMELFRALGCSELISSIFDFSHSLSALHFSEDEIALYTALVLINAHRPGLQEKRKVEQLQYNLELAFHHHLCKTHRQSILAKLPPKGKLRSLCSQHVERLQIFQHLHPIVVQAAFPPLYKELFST
Format: cell-based
Procedure: General RORγ Gal4 Reporter Assay
Inverse agonist activity of potential ligands to RORγ was measured by inhibition of luminescence in a Gal4-luciferase reporter assay in Jurkat cells.
Jurkat cells stably over-expressing the RORγ receptor, Jurkat pEx/Gal/hRORγ CLBD/HYG pG5luc/blast, were plated at a concentration of 10,000 cells/well in a 384-well solid white cell culture plate (Perkin Elmer #6007899) in assay buffer RPMI 1640 (Gibco 11875-085 1L) containing 0.1% BSA, 100×HEPES (Gibco 15360-080), 100 mM sodium pyruvate (Gibco 11360-040), […] Hygromycin B (Invitrogen 10687-010) and 10 mg/mL blasticidin (Invitrogen R210-01). 100 nL of test compound in a 3-fold serial dilution, with final concentrations ranging from 40 μM to 0.67 nM, were added to the cells which were then incubated overnight.
The following day, cells were lysed with 10 μL of Steady-Glo Luciferase Assay System (Promega Cat. No. EZ550), and analyzed immediately. IC50 values were determined. The IC50 value is defined as the concentration of test compound needed to reduce luciferase activity by 50% and is calculated using the four parameter logistic equation to fit the normalized data.
Work on `CN=S1(=O)CCC(C(=O)N2CC[C@@]3(S(=O)(=O)c4ccc(F)cc4)c4ccc(C(F)(C(F)(F)F)C(F)(F)F)cc4CC[C@@H]23)CC1` (single isomer, unassigned) [Example 13] yielded a pIC50 of 7.59. In the case of `N=S1(=O)CCC(O)(C(=O)N2CC[C@@]3(S(=O)(=O)c4ccc(F)cc4)c4ccc(C(F)(C(F)(F)F)C(F)(F)F)cc4CC[C@@H]23)CC1` (mixture of isomers) [Example 9, ((3aR)-9b-((4-fluorophenyl)sulfonyl)-7-(perfluoropropan-2-yl)-4,5-dihydro-1H-benzo[e]indol-3(2H,3aH,9bH)-yl)(4-hydroxy-1-imino-1-oxidotetrahydro-2H-thiopyran-4-yl)methanone], the pIC50 was 7.85. Work on `N=S1(=O)CCC(C(=O)N2CCC3(S(=O)(=O)c4ccc(F)cc4)c4ccc(C(F)(C(F)(F)F)C(F)(F)F)cc4NCC23)CC1` (single isomer, unassigned) [Example 6, (9b-((4-fluorophenyl)sulfonyl)-7-(perfluoropropan-2-yl)-1,2,3a,4,5,9b-hexahydro-3H-pyrrolo[2,3-c]quinolin-3-yl)(1-imino-1-oxidohexahydro-1λ^6-thiopyran-4-yl)methanone] yielded a pIC50 of 7.29. Compound `CC(=O)N=S1(=O)CCC(C(=O)N2CC[C@@]3(S(=O)(=O)c4ccc(F)cc4)c4ccc(C(F)(C(F)(F)F)C(F)(F)F)cc4CC[C@@H]23)CC1` (single isomer, unassigned) [Example 16] has a pIC50 of 7.11. With `N=S1(=O)CCC(F)(C(=O)N2CC[C@@]3(S(=O)(=O)c4ccc(F)cc4)c4ccc(C(F)(C(F)(F)F)C(F)(F)F)cc4CC[C@@H]23)CC1` (single isomer, unassigned) [Example 19] the pIC50 was 7.22. `N=S1(=O)CCC(C(=O)N2CCC3(S(=O)(=O)c4cccc(F)c4)c4ccc(C(F)(C(F)(F)F)C(F)(F)F)cc4CCC23)CC1` (single isomer, unassigned) [Example 1, (9b-((3-fluorophenyl)sulfonyl)-7-(perfluoropropan-2-yl)-1,2,3a,4,5,9b-hexahydro-3H-benzo[e]indol-3-yl)(1-imino-1-oxidohexahydro-1λ^6-thiopyran-4-yl)methanone] showed a pIC50 of 7.40. For `N=S1(=O)CCC(C(=O)N2CCC3(S(=O)(=O)c4ccc(F)cc4)c4ccc(C(F)(C(F)(F)F)C(F)(F)F)cc4OCC23)CC1` (single isomer, unassigned) [Example 4], the pIC50 was 6.61. `N=S1(=O)CCC(C(=O)N2CC[C@@]3(S(=O)(=O)c4ccc(F)cc4)c4ccc(C(F)(C(F)(F)F)C(F)(F)F)cc4CC[C@@H]23)CC1` (single isomer, unassigned) [Example 11] showed a pIC50 of 7.41. `N#CC1(C(=O)N2CC[C@@]3(S(=O)(=O)c4ccc(F)cc4)c4ccc(C(F)(C(F)(F)F)C(F)(F)F)cc4CC[C@@H]23)CCS(=N)(=O)CC1` (stereo partly shown) [Example 10] showed a pIC50 of 7.32. With `N=S1(=O)CCC(C(=O)N2CCC3(S(=O)(=O)c4ccc(Cl)cc4)c4ccc(C(F)(C(F)(F)F)C(F)(F)F)cc4CCC23)CC1` (single isomer, unassigned) [Example 5] the pIC50 was 7.24. For `N=S1(=O)CCC(C(=O)N2CCC3(S(=O)(=O)c4cccc(Cl)c4)c4ccc(C(F)(C(F)(F)F)C(F)(F)F)cc4CCC23)CC1` (single isomer, unassigned) [Example 2], the pIC50 was 7.24. For `N=S1(=O)CCC(C(=O)N2CC[C@@]3(S(=O)(=O)c4ccc(F)cc4)c4ccc(C(F)(C(F)(F)F)C(F)(F)F)cc4CC[C@@H]23)CC1` (single isomer, unassigned) [Example 12], the pIC50 was 7.25. `N=S1(=O)CCC(C(=O)N2CC[C@@]3(S(=O)(=O)c4ccc(F)cc4)c4ccc(C(F)(C(F)(F)F)C(F)(F)F)cc4CC[C@@H]23)CC1` (mixture of isomers) [Example 7, ((3aR,9bR)-9b-((4-fluorophenyl)sulfonyl)-7-(perfluoropropan-2-yl)-1,2,3a,4,5,9b-hexahydro-3H-benzo[e]indol-3-yl)(1-imino-1-oxidohexahydro-1λ^6-thiopyran-4-yl)methanone] was tested, and the pIC50 was 7.55. For `CN1CC2N(C(=O)C3CCS(=N)(=O)CC3)CCC2(S(=O)(=O)c2ccc(F)cc2)c2ccc(C(F)(C(F)(F)F)C(F)(F)F)cc21` (stereo not shown) [Example 17], the pIC50 was 7.68. `N=S1(=O)CCC(C(=O)N2CCC3(S(=O)(=O)c4ccccc4)c4ccc(C(F)(C(F)(F)F)C(F)(F)F)cc4CCC23)CC1` (single isomer, unassigned) [Example 3] gave a pIC50 of 7.25. In the case of `CN=S1(=O)CCC(C(=O)N2CC[C@@]3(S(=O)(=O)c4ccc(F)cc4)c4ccc(C(F)(C(F)(F)F)C(F)(F)F)cc4CC[C@@H]23)CC1` (single isomer, unassigned) [Example 14], the pIC50 was 7.40. `CC(=O)N=S1(=O)CCC(C(=O)N2CC[C@@]3(S(=O)(=O)c4ccc(F)cc4)c4ccc(C(F)(C(F)(F)F)C(F)(F)F)cc4CC[C@@H]23)CC1` (single isomer, unassigned) [Example 15] was tested, and the pIC50 was 7.31. In the case of `N=S1(=O)CCC(F)(C(=O)N2CC[C@@]3(S(=O)(=O)c4ccc(F)cc4)c4ccc(C(F)(C(F)(F)F)C(F)(F)F)cc4CC[C@@H]23)CC1` (single isomer, unassigned) [Example 18], the pIC50 was 7.28. `CC1(C(=O)N2CC[C@@]3(S(=O)(=O)c4ccc(F)cc4)c4ccc(C(F)(C(F)(F)F)C(F)(F)F)cc4CC[C@@H]23)CCS(=N)(=O)CC1` (stereo partly shown) [Example 8] gave a pIC50 of 7.47.
